{"source": "patent US20020165233A1", "about": "“Quinoxaline containing medicaments for post exposure prophylaxis of an HIV infection” (priority 1999, published 2002)", "origin": "cited, not measured here", "key": {"HIV-1": {"system": "HIV-1", "details": "inhibitor given 1 hr before challenge, continued 20-30 weeks post challenge; cited from earlier work"}, "SIV": {"system": "SIV", "details": "administration 48 h before, 4 h after and 24 h after virus inoculation for 4 weeks; observed 56 weeks; cited from earlier work"}, "RT-SHIV": {"system": "RT-SHIV", "details": "RT-SHIV infected rhesus monkeys; cited from earlier work"}, "HIV [1]": {"system": "HIV", "details": "prophylaxis with only zidovudine; case-control study; cited from earlier work"}, "HIV [2]": {"system": "HIV", "details": "cited from earlier work"}}}
{"compound": "CCc1cc(CCc2nc3ccccc3o2)c(=O)[nH]c1C", "note": "[L-696,229]", "values": [{"measurement": "outcome of prophylaxis in treated animals", "setting": "HIV-1", "result": "developed delayed infections"}]}
{"compound": "C[C@H](Cn1cnc2c(N)ncnc21)OCP(=O)(O)O", "note": "[PMPA]", "values": [{"measurement": "protection against SIV infection", "setting": "SIV", "result": "full protection"}, {"measurement": "effect of post exposure prophylaxis (PEP)", "setting": "RT-SHIV", "result": "vaccination effect protecting the animals against wild-type challenge"}]}
{"compound": "Cc1cn([C@H]2C[C@H](N=[N+]=[N-])[C@@H](CO)O2)c(=O)[nH]c1=O", "note": "[zidovudine]", "values": [{"measurement": "protective effect of prophylaxis", "setting": "HIV [1]", "result": 80, "unit": "%"}, {"measurement": "suppression (change in viremia)", "setting": "HIV [2]; after 7 days of treatment at 1000 mg per day (Loveday et al)", "result": 1, "unit": "log"}, {"measurement": "mean initial suppression", "setting": "HIV [2]; conventionally used antiviral agents given alone", "result": "≤ 1", "unit": "log"}]}
